One data set has as its system CH1DoxR. Description: 72-h MTT proliferation assay, CH1DoxR. In kind it is cell-based. The note with it: Homo sapiens, read-out: IC50 Cell line CH1DoxR. The text has this:
(§1) Selected compounds from the above examples were subjected to a standard cellular proliferation assay using seven different human tumour cell lines: A2780, A278CisF, CH1, CH1DoxR, HCT116, HT29 and KM12. […] Human tumour cell lines were obtained from the ATCC (American Type Culture Collection, 10801 University Boulevard, Manessas, Va. 20110-2209, USA). The results are shown in Table 1, together with the average IC50 over the seven different cell lines.

Another data set deals with HCT116. The data set can be described thus: 72-h MTT proliferation assay, HCT116. The class given is cell-based. As to conditions: Homo sapiens, HCT-116, read-out: IC50 Cell line HCT116.
Excerpt: as §1

Data set [1] in a line: Metabolic carbinol-carboxyl oxidation. As to conditions: remark in Table 1.
The next data set deals with KM12. Description: 72-h MTT proliferation assay, KM12. As to conditions: Homo sapiens, read-out: IC50 Cell line KM12. The class given is cell-based.
Excerpt: as §1

The subject of the next data set is CH1. The data set can be described thus: 72-h MTT proliferation assay, CH1. As to conditions: Homo sapiens, read-out: IC50 Cell line CH1. The class given is cell-based.
Excerpt: as §1

Another data set has as its system A2780 CisR. The data set can be described thus: 72-h MTT proliferation assay, A2780 CisR. In kind it is cell-based. As to conditions: Homo sapiens, A2780cisR, read-out: IC50 Cell line A2780 CisR.
Excerpt: as §1

Data set [2] concerns seven different human tumour cell lines: A2780, A278CisF, CH1, CH1DoxR, HCT116, HT29 and KM12. Description: 72-h MTT proliferation assay, average over seven cell lines. In kind it is cell-based. As to conditions: read-out: IC50 Cell line Average. From the text:
Selected compounds from the above examples were subjected to a standard cellular proliferation assay using seven different human tumour cell lines: A2780, A278CisF, CH1, CH1DoxR, HCT116, HT29 and KM12.

The next data set concerns A2780. Description: 72-h MTT proliferation assay, A2780. In kind it is cell-based. The note with it: Homo sapiens, read-out: IC50 Cell line A2780.
Excerpt: as §1

Another data set concerns HT29. The data set can be described thus: 72-h MTT proliferation assay, HT29. In kind it is cell-based. The note with it: Homo sapiens, HT-29, read-out: IC50 Cell line HT29.
Excerpt: as §1

Another data set concerns the target T1, mouse ERK-2 (Mus musculus, UniProt P63085).
T1 construct: purchased Upstate Biotechnologies
The data set can be described thus: ERK-2 kinase assay (MBP phosphorylation). The class given is biochemical. The note with it: Table 2; read-out: Kinase inhibition ERK2 IC50. How it is done:
ERK-2 kinase activity was measured by the incorporation of radioactive phosphate into myelin basic protein (MBP), catalysed by purified mouse ERK-2 (Upstate Biotechnologies). The reaction mixture (total volume 50 μL) consisted of 20 mM MOPS, pH 7.0,25 mM β-glycerophosphate, 5 mM EGTA, 1 mM DTT, 1 mM Na3VO4, 10 mM MgCl2, 100 μM ATP, 0.2 μCi [γ-^32P]-ATP.

The next data set deals with A549, HT29, Saos-2. The data set can be described thus: In vitro anti-proliferative activity, 72-h MTT, A549, HT29, Saos-2. The class given is cell-based. The note with it: read-out: In vitro anti-proliferative activity (72-h MTT IC50), Cell lines: A549, HT29, Saos-2.
Data set [3] has as its target T2, cyclic AMP-dependent kinase (PKA) catalytic subunit (Homo sapiens, UniProt P17612).
T2 construct: purchased Calbiochem 539487
The data set can be described thus: PKA kinase assay (Kemptide phosphorylation). As to conditions: Table 2; read-out: Kinase inhibition PKA IC50. The class given is biochemical. Here is the method:
The reaction mixture (total volume 50 μl) consisted of 20 mM MOPS, pH 7.2, 25 mM β-glycerophosphate, 5 mM EGTA, 1 mM DTT, 1 mM Na3VO4, 10 mM MgCl2, 100 μM ATP, 0.2 μCi [γ-^32P]-ATP.

The next data set in a line: Aqueous solubility. The note with it: remark in Table 1; versus Roscovitine. The class given is physicochemical. From the text: […]. […] […]
For a further data set, the target named is CDK4/cyclin D1 (Homo sapiens, UniProt P11802). Description: CDK4/cyclin D1 kinase assay (GST-Rb phosphorylation). In kind it is biochemical. The note with it: Table 2; read-out: Kinase inhibition CDK4/cyclin D1 IC50. How it is done: Assays for CDK2/cyclin E kinase, CDK1/cyclin B and CDK4/cyclin D1 may be carried out by monitoring phosphorylation of GST-Rb in an appropriate system. […] The phosphorylation reaction mixture (total volume 40 μl) consisted of 50 mM HEPES pH 7.4, 20 mM MgCl2, 5 mM EGTA, 2 mM DTT, 20 mM β-glycerophosphate, 2 mM NaF, 1 mM Na3VO4, Protease Inhibitors Cocktail (Sigma, see above), BSA 0.5 mg/ml, 1 μg purified enzyme complex, 10 μl of GST-Rb-Sepharose-beads, 100 μM ATP, 0.2 μCi ^32P-ATP. The reaction is carried out for 30 min at 30° C. at constant shaking. At the end of this period 100 μl of 50 mM HEPES, pH 7.4 and 1 mM ATP is added to each well and the total volume transferred onto GFC filtered plate. The plate is washed 5 times with 200 μl of 50 mM HEPES, pH 7.4 and 1 mM ATP. To each well was added 50 μl scintillant liquid and the radioactivity of the samples is measured on Scintilation counter (Topcount, HP). The IC50 values of different peptides were calculated using GraFit software.

The target of a further data set is CDK7/cyclin H (Homo sapiens, UniProt P50613). Description: CDK7/cyclin H kinase inhibition. In kind it is biochemical. The note with it: Table 2.
A short description of data set [4]: Pharmacokinetic analysis in mice.

CDK7/cyclin H, sequence (P50613 whole entry, species assumed): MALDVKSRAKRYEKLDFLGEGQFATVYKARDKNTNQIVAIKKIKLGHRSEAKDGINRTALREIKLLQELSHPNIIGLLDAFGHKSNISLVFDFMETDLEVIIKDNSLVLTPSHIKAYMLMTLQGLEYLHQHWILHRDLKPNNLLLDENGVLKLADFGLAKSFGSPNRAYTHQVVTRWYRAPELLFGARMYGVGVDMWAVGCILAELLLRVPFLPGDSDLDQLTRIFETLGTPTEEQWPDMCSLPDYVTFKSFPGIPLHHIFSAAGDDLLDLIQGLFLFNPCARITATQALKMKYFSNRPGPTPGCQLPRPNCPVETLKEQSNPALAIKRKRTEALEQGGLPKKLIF
CDK7/cyclin H, sequence (P51946 whole entry partner, species assumed): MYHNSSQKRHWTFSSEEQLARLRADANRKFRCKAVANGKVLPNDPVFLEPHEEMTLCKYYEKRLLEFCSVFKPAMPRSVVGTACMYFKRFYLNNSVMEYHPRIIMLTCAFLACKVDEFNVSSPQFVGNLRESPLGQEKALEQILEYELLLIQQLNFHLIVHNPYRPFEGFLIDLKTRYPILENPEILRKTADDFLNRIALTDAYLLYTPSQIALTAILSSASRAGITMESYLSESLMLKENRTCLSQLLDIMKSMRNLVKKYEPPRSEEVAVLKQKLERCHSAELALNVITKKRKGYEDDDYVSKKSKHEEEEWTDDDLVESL
T1 sequence (P63085 whole entry): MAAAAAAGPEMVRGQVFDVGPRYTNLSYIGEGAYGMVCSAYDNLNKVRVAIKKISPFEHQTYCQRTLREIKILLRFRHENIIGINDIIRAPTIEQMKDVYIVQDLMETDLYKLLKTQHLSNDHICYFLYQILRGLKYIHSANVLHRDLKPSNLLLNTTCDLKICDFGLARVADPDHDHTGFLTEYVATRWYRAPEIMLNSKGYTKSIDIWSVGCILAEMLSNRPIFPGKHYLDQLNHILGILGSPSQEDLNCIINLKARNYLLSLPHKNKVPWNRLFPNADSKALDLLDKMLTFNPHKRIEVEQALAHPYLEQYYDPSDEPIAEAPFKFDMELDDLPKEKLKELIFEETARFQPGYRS
CDK4/cyclin D1, sequence (P11802 whole entry, species assumed): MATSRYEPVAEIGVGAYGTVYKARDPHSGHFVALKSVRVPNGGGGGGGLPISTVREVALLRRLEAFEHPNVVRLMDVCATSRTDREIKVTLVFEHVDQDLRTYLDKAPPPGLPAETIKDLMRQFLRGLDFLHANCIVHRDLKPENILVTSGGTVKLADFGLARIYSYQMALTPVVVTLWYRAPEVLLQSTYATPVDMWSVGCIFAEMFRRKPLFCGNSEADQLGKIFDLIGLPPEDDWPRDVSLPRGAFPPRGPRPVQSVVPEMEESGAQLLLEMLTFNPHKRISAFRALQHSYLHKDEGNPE
CDK4/cyclin D1, sequence (P24385 whole entry partner, species assumed): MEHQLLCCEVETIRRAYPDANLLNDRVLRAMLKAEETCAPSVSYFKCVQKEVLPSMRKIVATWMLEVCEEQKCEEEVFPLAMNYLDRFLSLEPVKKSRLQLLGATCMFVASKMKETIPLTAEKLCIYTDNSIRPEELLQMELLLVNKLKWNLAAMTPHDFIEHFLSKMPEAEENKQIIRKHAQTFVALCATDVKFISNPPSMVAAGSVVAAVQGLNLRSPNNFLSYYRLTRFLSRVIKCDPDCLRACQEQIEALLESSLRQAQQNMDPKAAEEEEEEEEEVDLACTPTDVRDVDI

Regarding `CC[C@@H](Nc1nc(NCc2ccccc2)c2ncn(C(C)C)c2n1)C(C)O` (mixture of isomers) [7 (2RS,3R), (2RS, 3R)-3-(6-Benzylamino-9-isopropyl-9H-purin-2-ylamino)-pentan-2-ol], the IC50 in the data set on CH1DoxR worked out at 12 µM; in the data set on HCT116, 12 µM; in the data set on KM12 it was 19 µM; in the data set on CH1, 17 µM; in the data set with A2780 CisR, 15 µM; in [2], 13.8 µM. The IC50 came out at 6.6 µM in the data set on A2780 and 15 µM in the data set with HT29. The “PK remark: carbinol metabolism” value in data set [1] was “Blocked carbinol metabolism”.

The compound `CC[C@H](CO)Nc1nc(NCc2ccccn2)c2ncn(C(C)C)c2n1` [Example 5, (R)-2-{9-Isopropyl-6-[(pyridin-2:ylmethyl)-amino]-9H-purin-2:ylamino}-butan-1-ol] had a melting point of 30 to 35 °C. Also, the IC50 with CH1DoxR was 23 µM. The IC50 with HCT116 amounted to 26 µM. The IC50 on mouse ERK-2 came to 9.5 µM. In addition, in the data set on KM12, the IC50 came to 38 µM. Besides, the IC50 in the data set with CH1 was 26 µM. Besides, the IC50 in the data set with A2780 CisR amounted to 28 µM. Also, the IC50 with A549, HT29, Saos-2 was 4.5 µM. Moreover, the IC50 in data set [2] amounted to 31 µM. Further, the IC50 in data set [3] is over 50 µM. Besides, the “PK remark: aqueous solubility” value in “Aqueous solubility” is given as “Improved aqueous solubility”. In addition, in the data set with A2780, the IC50 stood at 22 µM. Also, the IC50 in the data set with HT29 stood at 54 µM.

Take `CC[C@H](CO)Nc1nc(NCc2ccncc2)c2ncn(C(C)C)c2n1` [Example 6, (R)-2-{9-Isopropyl-6-[(pyridin-4-ylmethyl)-amino]-9H-purin-2-ylamino}-butan-1-ol]: the melting point lay within 105 to 106 °C. Moreover, the IC50 with CH1DoxR stood at 28 µM. In the data set on HCT116, the IC50 was 10 µM. Also, on CDK4/cyclin D1, the IC50 was determined as 30 µM. In addition, the IC50 in the data set with KM12 came out at 7 µM. In addition, in the data set on CH1, the IC50 worked out at 8.2 µM. In addition, in the data set on A2780 CisR, the IC50 was determined as 22 µM. Moreover, in the data set on A549, HT29, Saos-2, the IC50 worked out at 17 µM. In addition, the IC50 in data set [2] turned out to be 17.3 µM. Further, the IC50 in [3] was over 50 µM. Further, in the data set “Aqueous solubility”, the “PK remark: aqueous solubility” value was “Improved aqueous solubility”. For the same compound, in the data set with A2780, the IC50 was 23 µM. For the same compound, the IC50 with HT29 was 23 µM. The IC50 at CDK7/cyclin H turned out to be 0.74 µM.

As to `CC[C@@H](Nc1nc(NCc2ccccc2)c2ncn(C(C)C)c2n1)[C@H](C)O` [Example 7 (2S,3R), (2S, 3R)-3-(6-Benzylamino-9-isopropyl-9H-purin-2-ylamino)-pentan-2-ol], the IC50 was determined as 4.6 µM in the data set on CH1DoxR; 5.4 µM in the data set with HCT116; 5.4 µM with KM12; 5 µM in the data set with CH1; 3.8 µM in the data set with A2780 CisR; 6.9 µM in data set [2]. For the same compound, the IC50 in the data set with A2780 came to 6.4 µM. Further, in data set [1], the “PK remark: carbinol metabolism” value is recorded as “Blocked carbinol metabolism”.

On to `CC[C@H](CO)Nc1nc(NCc2ccccc2)c2ncn(C(C)C)c2n1` [Roscovitine], for which the AUC in data set [4] (mice, comparative value) stood at 75454 nh-h/mL. In data set [4] (mouse, in vivo), this compound had a half-life of 2.7 h.

These data come from patent publication US7612079B2, “2,6,9-substituted purine derivatives and their use in the treatment of proliferative disorders” (Cyclacel Limited, priority 2001, dated 2009).
